Laboratory results from the NIST ThermoML archive (doi:10.1016/j.tca.2018.04.007).
Numbers after ± are expanded uncertainties.

Tests used:
[1] = 101.33 kPa, Liquid; for viscosity: Capillary tube (Ostwald / Ubbelohde) method; for mass density: Vibrating tube method; for thermal conductivity: transient hot wire; for electrical conductivity: Direct current cell with electrodes
[2] = refractive index (Na D-line) (dimensionless); conditions: 101.33 kPa, Liquid, Standard Abbe refractometry

Row | Compound | mass density ([1]; 283.15 K) | viscosity ([1]; 293.15 K) | electrical conductivity ([1]; 293.15 K) | mass density ([1]; 293.15 K) | thermal conductivity ([1]; 293.15 K) | viscosity ([1]; 303.15 K) | electrical conductivity ([1]; 303.15 K) | mass density ([1]; 303.15 K) | thermal conductivity ([1]; 303.15 K) | viscosity ([1]; 313.15 K) | electrical conductivity ([1]; 313.15 K) | mass density ([1]; 313.15 K) | thermal conductivity ([1]; 313.15 K) | viscosity ([1]; 323.15 K) | electrical conductivity ([1]; 323.15 K) | mass density ([1]; 323.15 K) | thermal conductivity ([1]; 323.15 K) | viscosity ([1]; 333.15 K) | electrical conductivity ([1]; 333.15 K) | thermal conductivity ([1]; 333.15 K) | other results
1 | CCCC[P+](C)(CCCC)CCCC.O=S(=O)([N-]S(=O)(=O)C(F)(F)F)C(F)(F)F | 1267.21 ± 2 kg/m3 | 299.3 ± 9.5 mPa·s | 0.0367 ± 0.0037 S/m | 1258.68 ± 2 kg/m3 | 0.126 ± 0.002 W/m/K | 156 ± 3.4 mPa·s | 0.0743 ± 0.0074 S/m | 1250.31 ± 2 kg/m3 | 0.125 ± 0.002 W/m/K | 87.7 ± 1.3 mPa·s | 0.123 ± 0.012 S/m | 1242.07 ± 2 kg/m3 | 0.122 ± 0.002 W/m/K | 54.7 ± 0.7 mPa·s | 0.187 ± 0.019 S/m | 1233.84 ± 2 kg/m3 | 0.123 ± 0.002 W/m/K | 38.4 ± 0.5 mPa·s | 0.279 ± 0.028 S/m | 0.122 ± 0.002 W/m/K | viscosity ([1]; 283.15 K): 616.7 ± 26 mPa·s; thermal conductivity ([1]; 283.15 K): 0.126 ± 0.002 W/m/K; mass density ([1]; 333.15 K): 1225.64 ± 2 kg/m3; viscosity ([1]; 343.15 K): 27.5 ± 0.3 mPa·s; electrical conductivity ([1]; 343.15 K): 0.405 ± 0.041 S/m; mass density ([1]; 343.15 K): 1217.49 ± 2 kg/m3; thermal conductivity ([1]; 343.15 K): 0.121 ± 0.002 W/m/K; refractive index ([2]; 283.15 K): 1.4403 ± 0.0005; refractive index ([2]; 293.15 K): 1.4374 ± 0.0005; refractive index ([2]; 303.15 K): 1.4344 ± 0.0005; refractive index ([2]; 313.15 K): 1.4314 ± 0.0005; refractive index ([2]; 323.15 K): 1.4285 ± 0.0005; refractive index ([2]; 333.15 K): 1.4255 ± 0.0005; refractive index ([2]; 343.15 K): 1.4228 ± 0.0005
2 | CCCCn1cc[n+](C)c1.COS(=O)(=O)[O-] [1-butyl-3-methylimidazolium methyl sulfate] | 1218.78 ± 2 kg/m3 | 269.1 ± 8 mPa·s | 0.104 ± 0.01 S/m | 1211.96 ± 2 kg/m3 | 0.177 ± 0.002 W/m/K | 151.9 ± 3.3 mPa·s | 0.177 ± 0.018 S/m | 1205.33 ± 2 kg/m3 | 0.176 ± 0.002 W/m/K | 91.7 ± 1.4 mPa·s | 0.279 ± 0.028 S/m | 1198.79 ± 2 kg/m3 | 0.176 ± 0.002 W/m/K | 59.6 ± 0.7 mPa·s | 0.426 ± 0.043 S/m | 1192.26 ± 2 kg/m3 | 0.174 ± 0.002 W/m/K | 40.5 ± 0.5 mPa·s | 0.623 ± 0.062 S/m | 0.173 ± 0.002 W/m/K | viscosity ([1]; 283.15 K): 531.6 ± 22 mPa·s; thermal conductivity ([1]; 283.15 K): 0.179 ± 0.002 W/m/K; mass density ([1]; 333.15 K): 1185.76 ± 2 kg/m3; viscosity ([1]; 343.15 K): 28.9 ± 0.4 mPa·s; electrical conductivity ([1]; 343.15 K): 0.884 ± 0.088 S/m; mass density ([1]; 343.15 K): 1179.31 ± 2 kg/m3; thermal conductivity ([1]; 343.15 K): 0.172 ± 0.002 W/m/K; refractive index ([2]; 283.15 K): 1.4831 ± 0.0005; refractive index ([2]; 293.15 K): 1.4804 ± 0.0005; refractive index ([2]; 303.15 K): 1.4781 ± 0.0005; refractive index ([2]; 313.15 K): 1.4753 ± 0.0005; refractive index ([2]; 323.15 K): 1.4729 ± 0.0005; refractive index ([2]; 333.15 K): 1.4704 ± 0.0005; refractive index ([2]; 343.15 K): 1.4678 ± 0.0005
3 | COS(=O)(=O)[O-].C[n+]1ccccc1 [1-methylpyridinium methylsulfate] | 1355 ± 2.1 kg/m3 | 113.5 ± 2 mPa·s | 0.287 ± 0.029 S/m | 1348.1 ± 2.1 kg/m3 | 0.205 ± 0.002 W/m/K | 69.2 ± 0.9 mPa·s | 0.45 ± 0.045 S/m | 1341.3 ± 2.1 kg/m3 | 0.204 ± 0.002 W/m/K | 46 ± 0.6 mPa·s | 0.683 ± 0.068 S/m | 1334.5 ± 2.1 kg/m3 | 0.204 ± 0.002 W/m/K | 32 ± 0.4 mPa·s | 0.986 ± 0.099 S/m | 1327.8 ± 2.1 kg/m3 | 0.203 ± 0.002 W/m/K | 23 ± 0.3 mPa·s | 1.36 ± 0.14 S/m | 0.202 ± 0.002 W/m/K | viscosity ([1]; 283.15 K): 199 ± 4.9 mPa·s; thermal conductivity ([1]; 283.15 K): 0.205 ± 0.002 W/m/K; mass density ([1]; 333.15 K): 1321.1 ± 2.1 kg/m3; viscosity ([1]; 343.15 K): 17.3 ± 0.2 mPa·s; electrical conductivity ([1]; 343.15 K): 1.75 ± 0.18 S/m; mass density ([1]; 343.15 K): 1314.5 ± 2.1 kg/m3; thermal conductivity ([1]; 343.15 K): 0.201 ± 0.002 W/m/K; refractive index ([2]; 283.15 K): 1.5164 ± 0.0005; refractive index ([2]; 293.15 K): 1.5139 ± 0.0005; refractive index ([2]; 303.15 K): 1.5113 ± 0.0005; refractive index ([2]; 313.15 K): 1.5088 ± 0.0005; refractive index ([2]; 323.15 K): 1.5063 ± 0.0005; refractive index ([2]; 333.15 K): 1.5039 ± 0.0005; refractive index ([2]; 343.15 K): 1.5013 ± 0.0005
4 | OCC(O)CO [glycerol] |  |  |  |  | 0.284 ± 0.002 W/m/K |  |  |  | 0.284 ± 0.002 W/m/K |  |  |  | 0.284 ± 0.002 W/m/K |  |  |  | 0.284 ± 0.002 W/m/K |  |  | 0.284 ± 0.002 W/m/K | thermal conductivity ([1]; 283.15 K): 0.284 ± 0.002 W/m/K
5 | CCCC[P+](C)(CCCC)CCCC.[Cl-] [methyltributylphosphonium chloride] | 964.23 ± 2 kg/m3 | 13511 ± 1300 mPa·s | 0.00254 ± 0.00026 S/m | 958.67 ± 2 kg/m3 | 0.159 ± 0.002 W/m/K | 4692 ± 360 mPa·s | 0.0059 ± 0.00059 S/m | 953.44 ± 2 kg/m3 | 0.158 ± 0.002 W/m/K | 1914 ± 120 mPa·s | 0.0131 ± 0.0013 S/m | 948.08 ± 2 kg/m3 | 0.157 ± 0.002 W/m/K | 859 ± 42 mPa·s | 0.029 ± 0.0029 S/m | 942.74 ± 2 kg/m3 | 0.156 ± 0.002 W/m/K | 416.8 ± 16 mPa·s | 0.052 ± 0.0052 S/m | 0.155 ± 0.002 W/m/K | mass density ([1]; 333.15 K): 937.42 ± 2 kg/m3; electrical conductivity ([1]; 343.15 K): 0.0941 ± 0.0094 S/m; mass density ([1]; 343.15 K): 932.12 ± 2 kg/m3; thermal conductivity ([1]; 343.15 K): 0.154 ± 0.002 W/m/K; refractive index ([2]; 283.15 K): 1.5053 ± 0.0005; refractive index ([2]; 293.15 K): 1.5037 ± 0.0005; refractive index ([2]; 303.15 K): 1.4999 ± 0.0005; refractive index ([2]; 313.15 K): 1.4972 ± 0.0005; refractive index ([2]; 323.15 K): 1.4952 ± 0.0005; refractive index ([2]; 333.15 K): 1.4923 ± 0.0005; refractive index ([2]; 343.15 K): 1.4888 ± 0.0005
6 | CCCC[P+](C)(CCCC)CCCC.COS(=O)(=O)[O-] [tributylmethylphosphonium methyl sulfate] | 1066.59 ± 2 kg/m3 | 1434 ± 82 mPa·s | 0.00749 ± 0.00075 S/m | 1060.4 ± 2 kg/m3 | 0.16 ± 0.002 W/m/K | 650.6 ± 29 mPa·s | 0.0158 ± 0.0016 S/m | 1054.25 ± 2 kg/m3 | 0.159 ± 0.002 W/m/K | 339.2 ± 11 mPa·s | 0.0278 ± 0.0028 S/m | 1048.13 ± 2 kg/m3 | 0.159 ± 0.002 W/m/K | 189.4 ± 4.6 mPa·s | 0.0483 ± 0.0048 S/m | 1042.02 ± 2 kg/m3 | 0.158 ± 0.002 W/m/K | 113.9 ± 2 mPa·s | 0.0882 ± 0.0088 S/m | 0.157 ± 0.002 W/m/K | mass density ([1]; 333.15 K): 1036.12 ± 2 kg/m3; viscosity ([1]; 343.15 K): 72.4 ± 1 mPa·s; electrical conductivity ([1]; 343.15 K): 0.139 ± 0.014 S/m; mass density ([1]; 343.15 K): 1030.18 ± 2 kg/m3; thermal conductivity ([1]; 343.15 K): 0.157 ± 0.002 W/m/K; refractive index ([2]; 283.15 K): 1.4782 ± 0.0005; refractive index ([2]; 293.15 K): 1.4755 ± 0.0005; refractive index ([2]; 303.15 K): 1.4728 ± 0.0005; refractive index ([2]; 313.15 K): 1.4702 ± 0.0005; refractive index ([2]; 323.15 K): 1.4673 ± 0.0005; refractive index ([2]; 333.15 K): 1.4647 ± 0.0005; refractive index ([2]; 343.15 K): 1.4619 ± 0.0005
